In patent US7851589B2, “Polypeptide derived from the ryanodine receptor that inhibits calcium leakage” (Otsuka Pharmaceutical Co., Ltd., priority 2004, dated 2010):

What was measured:
[1] = test system: ischemic reperfusion injury; settings: Hypertens. Res., 25: 303-9 (2002); cited from earlier work
RyR2 = RyR2 (Canis lupus familiaris, UniProt A0A8I3MT21); settings: cited from earlier work
normal canine model = settings: cited from earlier work
[2] = test system: tachycardia-induced canine heart failure model; settings: cited from earlier work
[3] = test system: neuron death during cerebral ischemia; settings: Neurosci. Lett., 158: 105-108 (1993); cited from earlier work
ryanodine receptor = experiment: FK506-induced Ca2+ leakage in sarcoplasmic reticulum derived from canine myocardium (fluo 3 indicator); format: biochemical; settings: for Ca2+ leakage inhibitory effect: 30 μM FK506 + 1 μM thapsigargin, value 20 seconds after addition, canine myocardial sarcoplasmic reticulum; for Ca2+ leakage inhibitory effect / Ca2+ leakage inhibitory activity compared with R2P: polypeptide 0.1, 0.3 or 1.0 μM
Protocol: Ca^2+ leakage inhibitory activity was measured through the method of Yano, M., et al. [Yano, et al., Circulation, 102, 2131-2136 (2000)].
Firstly, sarcoplasmic reticulum was prepared from canine myocardium through the method of Kranias, et al. [Kranias E., et al., Biochim. Biophys. Acta., 709, 28-37 (1982)].
Subsequently, the sarcoplasmic reticulum (0.2 mg/mL) was incubated in 0.5 mL of 20 mM MOPS buffer (pH 6.8) containing […] potassium gluconate, 0.2 mM EGTA-calcium buffer (free calcium: Ca^2+=0.3 μM), and 10 mM NaN3.
After the fluorescence value was maintained constant, 0.5 mM ATP (product of Sigma) and 0.5 mM magnesium chloride were added to the resultant mixture, to thereby initiate Ca^2+ uptake. The time course of Ca^2+ uptake was measured. Ca^2+ uptake was measured by means of fluo 3 (product of Molecular Probes) serving as a Ca^2+ indicator, and the fluorescence intensity at an excitation wavelength of 480 nm and an emission wavelength of 530 nm was measured by means of a fluorometer.
After Ca^2+ uptake reached a plateau, 1 μM thapsigargin (product of Wako Pure Chemical Industries, Ltd.) was added to thereby inhibit sarco(endo)plasmic reticulum Ca-ATPase (SERCA) activity for elimination of the influence of SERCA. The difference between the fluorescence value before addition of ATP and the fluorescence value at the time of completion of ATP-induced active Ca^2+ uptake (i.e., the fluorescence value at the time when Ca^2+ uptake reached a plateau) was taken as 100%.
Ca^2+ leakage induced by simultaneous addition of thapsigargin and 30 μM FK506 (product of Fujisawa Pharmaceutical Co., Ltd,), which was regarded as a control of Ca^2+ leakage induction, was measured by means of a Ca^2+ indicator.
A polypeptide obtained in (a) above (concentration: 0.1 μM, 0.3 μM, or 1.0 μM) and FK506 (30 μM/L) were added simultaneously with administration of thapsigargin, and the effect of inhibiting the thus-induced Ca^2+ leakage via ryanodine receptor was measured by means of a Ca^2+ indicator in a manner similar to that described above.
In each of these figures, the vertical axis corresponds to the value as measured 20 seconds after addition of thapsigargin, FK506, and a polypeptide. The value is the average of data of measurement performed twice or three times.

RyR2, sequence (A0A8I3MT21 1-4967): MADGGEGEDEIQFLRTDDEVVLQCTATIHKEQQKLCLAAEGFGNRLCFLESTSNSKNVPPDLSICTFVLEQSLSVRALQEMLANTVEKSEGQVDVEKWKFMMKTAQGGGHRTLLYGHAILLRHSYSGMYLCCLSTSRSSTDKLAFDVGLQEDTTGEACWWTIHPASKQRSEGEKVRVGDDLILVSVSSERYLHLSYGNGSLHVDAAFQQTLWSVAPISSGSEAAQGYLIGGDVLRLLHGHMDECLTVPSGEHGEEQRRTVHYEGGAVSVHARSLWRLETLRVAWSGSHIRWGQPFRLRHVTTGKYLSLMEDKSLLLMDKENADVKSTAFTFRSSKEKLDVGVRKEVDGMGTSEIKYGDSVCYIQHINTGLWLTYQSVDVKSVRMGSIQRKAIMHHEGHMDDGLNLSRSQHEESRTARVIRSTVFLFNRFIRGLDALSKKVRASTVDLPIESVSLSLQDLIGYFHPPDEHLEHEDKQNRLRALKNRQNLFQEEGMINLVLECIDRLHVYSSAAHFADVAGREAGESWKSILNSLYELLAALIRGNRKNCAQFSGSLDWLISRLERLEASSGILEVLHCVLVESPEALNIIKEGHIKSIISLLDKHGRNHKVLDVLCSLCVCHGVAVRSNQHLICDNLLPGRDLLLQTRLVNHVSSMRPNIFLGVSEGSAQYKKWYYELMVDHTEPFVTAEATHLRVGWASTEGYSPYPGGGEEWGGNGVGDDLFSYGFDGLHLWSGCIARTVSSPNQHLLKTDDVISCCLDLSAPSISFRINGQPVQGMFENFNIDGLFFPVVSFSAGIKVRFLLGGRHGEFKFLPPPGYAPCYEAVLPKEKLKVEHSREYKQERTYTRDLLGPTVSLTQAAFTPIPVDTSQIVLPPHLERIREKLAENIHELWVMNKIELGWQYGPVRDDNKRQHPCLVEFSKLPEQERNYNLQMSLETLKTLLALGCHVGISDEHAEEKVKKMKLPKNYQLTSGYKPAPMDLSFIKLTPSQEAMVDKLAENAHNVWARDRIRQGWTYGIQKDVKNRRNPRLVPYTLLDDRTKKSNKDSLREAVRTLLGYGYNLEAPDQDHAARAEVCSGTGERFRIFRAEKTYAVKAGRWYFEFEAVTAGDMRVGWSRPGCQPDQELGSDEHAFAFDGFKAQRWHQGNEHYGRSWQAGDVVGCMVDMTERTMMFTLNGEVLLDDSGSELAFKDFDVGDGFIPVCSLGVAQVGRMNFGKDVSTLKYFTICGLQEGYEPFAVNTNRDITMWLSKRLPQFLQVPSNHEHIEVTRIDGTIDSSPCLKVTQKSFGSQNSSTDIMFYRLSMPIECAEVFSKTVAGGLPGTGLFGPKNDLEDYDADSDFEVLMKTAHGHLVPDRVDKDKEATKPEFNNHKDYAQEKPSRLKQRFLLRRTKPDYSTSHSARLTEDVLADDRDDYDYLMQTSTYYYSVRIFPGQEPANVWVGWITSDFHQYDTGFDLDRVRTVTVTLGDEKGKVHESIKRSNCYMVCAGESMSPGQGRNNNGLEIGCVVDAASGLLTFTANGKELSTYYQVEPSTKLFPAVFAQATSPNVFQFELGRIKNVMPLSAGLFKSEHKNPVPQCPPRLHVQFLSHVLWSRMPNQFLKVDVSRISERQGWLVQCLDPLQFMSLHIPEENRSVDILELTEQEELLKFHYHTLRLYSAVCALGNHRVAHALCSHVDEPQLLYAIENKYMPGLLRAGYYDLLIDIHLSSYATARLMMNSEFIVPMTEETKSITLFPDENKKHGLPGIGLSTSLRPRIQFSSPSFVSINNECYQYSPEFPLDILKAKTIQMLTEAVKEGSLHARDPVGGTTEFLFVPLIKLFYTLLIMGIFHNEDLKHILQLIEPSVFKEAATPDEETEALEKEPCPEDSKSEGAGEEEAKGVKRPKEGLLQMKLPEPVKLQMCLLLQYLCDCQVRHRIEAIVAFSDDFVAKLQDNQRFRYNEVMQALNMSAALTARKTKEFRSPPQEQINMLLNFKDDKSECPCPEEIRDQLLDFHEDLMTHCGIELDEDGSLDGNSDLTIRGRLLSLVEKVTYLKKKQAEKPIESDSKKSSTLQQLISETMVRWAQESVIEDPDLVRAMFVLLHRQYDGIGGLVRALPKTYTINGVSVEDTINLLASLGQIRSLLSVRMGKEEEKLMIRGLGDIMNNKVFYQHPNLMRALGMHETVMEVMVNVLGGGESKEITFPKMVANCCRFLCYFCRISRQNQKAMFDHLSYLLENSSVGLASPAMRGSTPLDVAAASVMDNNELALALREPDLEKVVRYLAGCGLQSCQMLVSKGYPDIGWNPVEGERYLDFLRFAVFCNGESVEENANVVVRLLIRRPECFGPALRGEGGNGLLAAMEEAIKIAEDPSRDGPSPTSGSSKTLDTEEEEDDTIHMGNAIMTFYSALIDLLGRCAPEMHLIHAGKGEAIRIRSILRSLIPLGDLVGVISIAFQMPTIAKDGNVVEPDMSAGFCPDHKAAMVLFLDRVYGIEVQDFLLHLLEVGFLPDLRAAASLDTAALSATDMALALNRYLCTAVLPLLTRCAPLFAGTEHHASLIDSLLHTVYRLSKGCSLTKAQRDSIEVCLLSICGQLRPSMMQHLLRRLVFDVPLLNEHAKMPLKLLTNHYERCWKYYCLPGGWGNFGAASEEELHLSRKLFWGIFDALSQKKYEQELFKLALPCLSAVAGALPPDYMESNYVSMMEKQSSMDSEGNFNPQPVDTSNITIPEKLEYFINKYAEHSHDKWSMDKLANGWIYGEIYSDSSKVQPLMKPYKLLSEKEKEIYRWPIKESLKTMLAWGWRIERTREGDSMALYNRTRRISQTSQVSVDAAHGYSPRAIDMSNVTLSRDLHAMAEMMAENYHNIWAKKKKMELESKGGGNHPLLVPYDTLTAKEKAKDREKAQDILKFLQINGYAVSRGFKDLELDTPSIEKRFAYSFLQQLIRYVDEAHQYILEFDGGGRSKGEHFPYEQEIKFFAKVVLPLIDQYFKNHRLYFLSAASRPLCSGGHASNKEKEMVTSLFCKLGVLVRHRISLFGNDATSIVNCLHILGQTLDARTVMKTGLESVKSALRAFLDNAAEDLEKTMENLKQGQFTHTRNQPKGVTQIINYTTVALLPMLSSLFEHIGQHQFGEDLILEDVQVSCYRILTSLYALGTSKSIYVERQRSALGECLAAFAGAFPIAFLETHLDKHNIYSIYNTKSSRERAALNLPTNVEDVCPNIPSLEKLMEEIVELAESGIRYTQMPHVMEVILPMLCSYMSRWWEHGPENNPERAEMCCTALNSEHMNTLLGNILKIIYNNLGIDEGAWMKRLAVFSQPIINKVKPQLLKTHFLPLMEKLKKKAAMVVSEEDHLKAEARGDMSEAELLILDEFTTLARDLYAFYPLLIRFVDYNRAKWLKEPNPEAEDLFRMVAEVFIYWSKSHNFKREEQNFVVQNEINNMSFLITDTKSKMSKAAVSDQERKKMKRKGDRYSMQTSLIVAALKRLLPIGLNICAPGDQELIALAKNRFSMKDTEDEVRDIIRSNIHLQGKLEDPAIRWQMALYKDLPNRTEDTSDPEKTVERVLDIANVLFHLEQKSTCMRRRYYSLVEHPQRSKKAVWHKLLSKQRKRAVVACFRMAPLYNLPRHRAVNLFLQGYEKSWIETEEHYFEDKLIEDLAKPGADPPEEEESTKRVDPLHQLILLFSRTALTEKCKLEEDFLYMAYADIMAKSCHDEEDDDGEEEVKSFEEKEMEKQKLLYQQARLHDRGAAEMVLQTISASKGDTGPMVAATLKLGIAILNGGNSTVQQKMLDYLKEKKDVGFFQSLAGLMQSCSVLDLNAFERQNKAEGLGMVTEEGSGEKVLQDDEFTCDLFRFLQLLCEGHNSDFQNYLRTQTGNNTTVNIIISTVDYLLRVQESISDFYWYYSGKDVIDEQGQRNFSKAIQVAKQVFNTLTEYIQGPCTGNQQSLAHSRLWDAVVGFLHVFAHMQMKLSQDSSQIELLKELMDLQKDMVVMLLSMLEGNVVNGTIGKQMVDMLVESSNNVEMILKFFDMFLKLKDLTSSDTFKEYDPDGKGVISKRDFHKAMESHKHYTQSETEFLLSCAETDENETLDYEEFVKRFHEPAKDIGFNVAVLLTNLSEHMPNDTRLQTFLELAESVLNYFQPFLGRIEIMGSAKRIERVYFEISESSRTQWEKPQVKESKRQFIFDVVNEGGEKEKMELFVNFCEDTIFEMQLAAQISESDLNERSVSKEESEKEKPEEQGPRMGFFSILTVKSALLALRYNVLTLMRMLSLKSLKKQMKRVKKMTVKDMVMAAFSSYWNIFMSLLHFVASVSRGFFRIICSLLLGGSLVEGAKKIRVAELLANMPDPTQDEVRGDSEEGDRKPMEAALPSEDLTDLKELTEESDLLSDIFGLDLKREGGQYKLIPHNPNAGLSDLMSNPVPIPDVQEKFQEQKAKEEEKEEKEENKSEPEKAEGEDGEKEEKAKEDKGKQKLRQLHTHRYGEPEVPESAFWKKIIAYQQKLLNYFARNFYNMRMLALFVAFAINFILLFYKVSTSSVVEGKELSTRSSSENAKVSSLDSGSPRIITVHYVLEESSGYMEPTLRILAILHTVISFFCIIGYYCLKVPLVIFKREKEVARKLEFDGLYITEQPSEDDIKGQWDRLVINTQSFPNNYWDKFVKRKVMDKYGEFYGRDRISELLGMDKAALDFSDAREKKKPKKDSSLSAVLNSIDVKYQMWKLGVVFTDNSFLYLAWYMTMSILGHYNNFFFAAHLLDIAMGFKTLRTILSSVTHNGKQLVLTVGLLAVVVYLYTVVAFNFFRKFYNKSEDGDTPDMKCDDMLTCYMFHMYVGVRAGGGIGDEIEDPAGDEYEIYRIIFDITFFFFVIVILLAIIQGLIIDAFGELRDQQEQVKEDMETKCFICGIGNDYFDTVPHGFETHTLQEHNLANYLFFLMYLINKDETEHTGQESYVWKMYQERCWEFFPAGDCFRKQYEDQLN

| Molecule | Ca2+ leakage inhibitory effect (ryanodine receptor) | Ca2+ leakage inhibitory activity compared with R2P (ryanodine receptor; FK506-induced leakage) | other results |
| --- | --- | --- | --- |
| COc1ccc2c(c1)CN(C(=O)CCN1CCC(Cc3ccccc3)CC1)CCS2 [JTV-519] |  |  | Effect on ischemic reperfusion injury [1]: effective for ischemic reperfusion injury; Correction of abnormal Ca2+ leakage via RyR2 (RyR2; Non-Patent Document 9): corrects abnormal Ca^2+ leakage via RyR2; Inhibition of Ca2+ leakage from the sarcoplasmic reticulum of failing myocardium (RyR2; known property of the control): inhibit Ca^2+ leakage from the sarcoplasmic reticulum of failing myocardium in a concentration-dependent manner; Effect on cardiac function (normal canine model): exhibit no effect on cardiac function; Effect on cardiac function [2]: exhibit the effect of improving cardiac function |
| O=C1CN(/N=C/c2ccc(-c3ccc([N+](=O)[O-])cc3)o2)C(O)=N1 [dantrolene] |  |  | Inhibition of neuron death during cerebral ischemia [3]: inhibit neuron death during cerebral ischemia |
| MSV-RP2: M+2112-2149; addition of methionine, serine and valine to the N-terminal of R2P (MSVEDTINLLASLGQIRSLLSVRMGKEEEKLMIRGLGDI) | exhibit Ca^2+ leakage inhibitory effect in a concentration-dependent manner | lower than that of R2P |  |
| R2JF: hRyR2 amino acid Nos. 2086-2133; SEQ ID NO: 14 peptide introduced to the N-terminal of RP1-20 (VLLHRQYDGIGGLVRALPKTYTINGVSVEDTINLLASLGQIRSLLSVR) | exhibit no Ca^2+ leakage inhibitory effect |  |  |
| R2P: 36 amino acids corresponding to positions 2114 to 2149 of human ryanodine receptor type 2 (hRyR2) (EDTINLLASLGQIRSLLSVRMGKEEEKLMIRGLGDI) | inhibits Ca^2+ leakage in a concentration-dependent manner |  | Ca2+ leakage inhibitory effect compared with control JTV519 (ryanodine receptor; 1.0 μM polypeptide vs 0.3 μM JTV519, FK506-induced leakage): comparable to that of 0.3 μM JTV519 |
| RP1-20: hRyR2 amino acid Nos. 2114-2133; deletion of 16 amino acids at the C-terminal of R2P (EDTINLLASLGQIRSLLSVR) | exhibit Ca^2+ leakage inhibitory effect in a concentration-dependent manner | lower than that of R2P |  |
| RP1-25: hRyR2 amino acid Nos. 2114-2138; deletion of 11 amino acids at the C-terminal of R2P (EDTINLLASLGQIRSLLSVRMGKEE) | exhibit Ca^2+ leakage inhibitory effect in a concentration-dependent manner | lower than that of R2P |  |
| RP1-30: hRyR2 amino acid Nos. 2114-2143; deletion of six amino acids at the C-terminal of R2P (EDTINLLASLGQIRSLLSVRMGKEEEKLMI) | exhibit Ca^2+ leakage inhibitory effect in a concentration-dependent manner | lower than that of R2P |  |
| RP13-32: hRyR2 amino acid Nos. 2126-2145; deletion of 12 N-terminal and four C-terminal amino acids of R2P (IRSLLSVRMGKEEEKLMIRG) | exhibit Ca^2+ leakage inhibitory effect in a concentration-dependent manner | lower than that of R2P |  |
| RP17-36: hRyR2 amino acid Nos. 2130-2149; deletion of 16 amino acids at the N-terminal of R2P (LSVRMGKEEEKLMIRGLGDI) | exhibit Ca^2+ leakage inhibitory effect in a concentration-dependent manner | lower than that of R2P |  |
| SEQ ID NO: 14: hRyR2 amino acid Nos. 2086-2113 (VLLHRQYDGIGGLVRALPKTYTINGVSV) | having no Ca^2+ leakage inhibitory effect |  |  |
